Patent US9339486B2, “Heterocyclic modulators of cannabinoid receptors” (THE CLEVELAND CLINIC FOUNDATION, priority 2008, dated 2016)

How the values were obtained:
CB1 [1] = target: T1, CB1 (Homo sapiens (Human), UniProt P21554); experiment: CB1 Binding Assay ([3H]CP 55940, cell membrane homogenates); conditions: for % Inhibition of Control Specific Binding / % of Control Specific Binding Mean / % of Control Specific Binding 1st / % of Control Specific Binding 2nd: CB1, test concentration 1.0E−05 (MD); for % of Control Specific Binding 1st: first replicate; for % of Control Specific Binding 2nd: second replicate; for % Inhibition of Control Specific Binding CB1: as repeated in Table 3
T1 sequence (P21554 whole entry): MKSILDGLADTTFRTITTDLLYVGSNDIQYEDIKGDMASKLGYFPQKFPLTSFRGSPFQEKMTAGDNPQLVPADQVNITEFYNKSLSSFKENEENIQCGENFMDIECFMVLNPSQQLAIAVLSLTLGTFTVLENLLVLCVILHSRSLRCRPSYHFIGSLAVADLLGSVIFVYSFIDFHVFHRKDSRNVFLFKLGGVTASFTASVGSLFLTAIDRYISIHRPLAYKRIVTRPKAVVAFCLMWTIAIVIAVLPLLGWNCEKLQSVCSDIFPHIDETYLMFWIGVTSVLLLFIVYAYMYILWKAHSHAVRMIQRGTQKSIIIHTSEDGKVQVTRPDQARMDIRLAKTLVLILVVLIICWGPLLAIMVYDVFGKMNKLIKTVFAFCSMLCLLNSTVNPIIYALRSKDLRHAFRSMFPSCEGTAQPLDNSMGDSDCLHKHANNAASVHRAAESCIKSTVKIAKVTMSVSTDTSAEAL
Description: (§1) After being incubated, the samples were filtered rapidly under vacuum through glass fiber filters (GF/B; Packard) presoaked with 0.3% PEI and rinsed several times with ice-cold buffer containing 50 mM Tris HCl (pH 7.4) and 0.5% BSA using a 96-sample cell harvester (Unifilter; Packard). The filters were dried then counted for radioactivity in a scintillation counter (Topcount; Packard) using a scintillation cocktail (Microscint 0; Packard). The results were expressed as a percentage of the inhibition of the control radioligand-specific binding. The reference standard compounds were tested in each experiment at several concentrations to obtain a competition curve from which its IC50 was calculated.

CB2 [2] = target: T2, CB2 (Homo sapiens (Human), UniProt P34972); experiment: CB2 Binding Assay ([3H]WIN 55212-2, cell membrane homogenates); conditions: for % Inhibition of Control Specific Binding / % of Control Specific Binding Mean / % of Control Specific Binding 1st / % of Control Specific Binding 2nd: CB2, test concentration 1.0E−05 (MD); for % of Control Specific Binding 1st: first replicate; for % of Control Specific Binding 2nd: second replicate; for % Inhibition of Control Specific Binding CB2: as repeated in Table 4
T2 sequence (P34972 whole entry): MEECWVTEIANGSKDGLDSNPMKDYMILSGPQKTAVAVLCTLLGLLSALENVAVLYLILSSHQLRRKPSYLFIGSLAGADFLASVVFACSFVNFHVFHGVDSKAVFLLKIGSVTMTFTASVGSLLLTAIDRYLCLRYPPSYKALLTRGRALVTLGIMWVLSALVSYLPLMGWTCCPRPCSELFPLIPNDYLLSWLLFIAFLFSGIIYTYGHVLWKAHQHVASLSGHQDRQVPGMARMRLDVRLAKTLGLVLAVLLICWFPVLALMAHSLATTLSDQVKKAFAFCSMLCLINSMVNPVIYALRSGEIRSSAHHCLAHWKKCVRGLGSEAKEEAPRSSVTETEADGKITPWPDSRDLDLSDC
Description: as §1, with “Cell membrane homogenates (15 μg protein) were incubated for 120 min at 37° C. with 0.8 nM [3H]WIN 55212-2 (the reference standard [Munro, 1993 #1321]) in the absence or presence of the test compound in a buffer containing 50 mM HEPES/Tris HCL (pH 7.4), 5 mM MgCl2, 2.5 mM EGTA, and 0.1% BSA. Nonspecific binding was determined in the presence of 10 μM WIN 55212-2. After” for “After”

[3] = system: spinal nerve ligation neuropathic pain model; experiment: Tactile allodynia in SNL neuropathic pain model (von Frey); assay type: in vivo, rat; conditions: for effect of antagonist alone on paw withdrawal threshold: 5 mg/kg i.p. alone
Description: Adult, male Sprague Dawley (Harlan Sprague Dawley, Indianapolis, Ind.) rats weighing 120-150 gm were used in experimental procedures approved by the Animal Care and Use Committee of the M. D. Anderson Cancer Center, University of Texas. Animals were housed three per cage on a 12/12 hr light/dark cycle with water and food pellets available ad libitum.
All surgical procedures were performed under deep isoflurane anesthesia in 100% 02. The spinal nerve ligation (SNL) was performed as described previously. Kim, S. H., et al., An Experimental Model for Peripheral Neuropathy Produced by Segmental Spinal Nerve Ligation in the Rat, Pain, 1992, 50:355-63. Briefly, a midline incision above the lumbar spine exposed the left L6 transverse process. The process was then removed, the left L5 and L6 spinal nerves were isolated, and both nerves were tightly ligated with 6-0 silk. Prophylactic antibiotic (norfloxacin 5 mg/kg subcutaneously) and analgesic (buprenorphine, 0.2-0.5 mg/kg, or morphine, 2.5 mg/kg, given subcutaneously) were administered once daily for 3 days. All the experiments were conducted 10-14 days after spinal nerve ligation.
(§2) Rats were placed in a compartment with a wire mesh bottom and allowed to acclimate for a minimum of 30 min before testing. Mechanical sensitivity was assessed using a series of Von Frey filaments with logarithmic incremental stiffness (0.41, 0.70, 1.20, 2.00, 3.63, 5.50, 8.50, and 15.1 g) (Stoelting, Wood Dale, Ill.) as previously described, and 50% probability withdrawal thresholds were calculated with the up-down method. Chaplan, S. R., et al., Quantitative Assessment of Tactile Allodynia in the Rat Paw, J. Neurosci. Methods, 1994, 53:55-63; Dixon, W., The Up-and-Down Method for Small Samples, J. Am. Stat. Assoc., 1965, 60:967-78. In brief, beginning with the 2.0-g probe, filaments were applied to the plantar surface of a hind paw for 6-8 s, in an ascending or descending order after a negative or positive withdrawal response, respectively. Six consecutive responses from the first change in the response were used to calculate the withdrawal threshold (in grams). In cases where response thresholds fell outside the range of detection, 15.00 and 0.25 g were, respectively, assigned for continuous negative or positive responses to the limit of stimuli. The percent maximal possible effect (% MPE) was calculated as ([postdrug threshold−baseline threshold]/[cutoff threshold (15 g)−baseline threshold])×100.
(§3) Statistical analyses were carried out using BMDP 2007 (Statistical Solutions, Saugus, Mass., USA) and Graph Pad Prism (version 4.03; Graph Pad Software Inc., San Diego, Calif., USA). Data were analyzed using one-way ANOVA, repeated measures ANOVA, or t-test where appropriate. If ANOVA was significant, Tukey-Kramer post hoc analysis was used for multiple group comparison. Area under the curve (AUC) was calculated using the trapezoidal rule. The results are presented as mean±s.e. mean and were considered significant at P<0.05. Analyses of the dose-response curves and statistics were obtained using the pharmacologic software programs of Tallarida and Murray and included calculation of the ED50 values and their 95% confidence intervals (CI). Tallarida, R. J., et al., Manual of Pharmacologic Calculations With Computer Programs, Second ed. New York: Springer-Verlag, 1987.

[4] = system: paclitaxel-induced neuropathic pain model; experiment: animal or person; assay type: in vivo, rat
Description: Groups of rats received daily i.p. injections of either vehicle or 1.0 mg/kg paclitaxel daily for four consecutive days for a final cumulative dose of 4 mg/kg; using an injection volume of 1 ml/kg. Polomano, R. C., et al., A Painful Peripheral Neuropathy in the Rat Produced by the Chemotherapeutic Drug, Paclitaxel, Pain, 2001, 94:293-304. The vehicle used in our experiments was the same vehicle used clinically for paclitaxel injections and is composed of a mixture of 10% saline and Cremophor EL® and […]. Baseline responses to mechanical stimulation of the hindpaw (see below) were established on day zero and continued daily until the development of neuropathy was confirmed.
as §2
To determine sensitivity to noxious heat, rats were placed in plexiglass enclosures on a transparent glass surface maintained at 30° C. and allowed to acclimate for 30 min. A thermal testing apparatus, consisting of a heat-emitting projector lamp and an electronic timer, was used. The device was activated after the lamp is placed directly beneath the planter surface of the hindpaw. The paw withdrawal latency in response to the radiant heat was recorded by a digital timer. A cutoff of 30 s was used to prevent potential tissue damage. After the baseline was measured, three groups of naïve rats (n=10) received 1.0, 3.0, or 10 mg/kg of the compound of Example 3 i.p. Response latencies were determined twice for each rat before drug injection and at 5, 10, 15, 30, 45, 60, 90 and 120 min after IP injection. The percent maximal possible effect (% MPE) was calculated as ([postdrug latency−baseline latency]/[cutoff time (30 s)−baseline latency])×100.
as §3

CB1 [5] = target: T1, CB1; experiment: CB1/CB2 Functional Assay (GTPγ[35S]), CB1 membranes; assay type: biochemical; conditions: for % Activation Average: reference agonist CP55,940
Description: (§4) A dose response curve was generated at eight concentrations in duplicate on CB1 and CB2 in light of reference agonists. The reference agonists for cannabinoid receptors was CP55,940. See FIGS. 1A, 1B, 2A, 2B, 3A and 3B.
(§5) Membranes (CB1, ES-110-MG or CB2, ES-111-MG) were mixed with GDP (volume:volume) and incubated for at least 15 min on ice. In parallel, GTPγ[^35S] were mixed with the beads (volume:volume) just before starting the reaction. The following reagents were successively added in the wells of an Optiplate: 50 μl of ligand, 20 μl of the membranes:GDP mix, 10 μl of assay buffer for agonist testing and 20 μl of the GTPγ[^35S]: beads mix. The plates were covered with a topseal, shaken on an orbital shaker for 2 min, and then incubated between 30 to 60 min. at room temperature. Then the plates were centrifuged for 10 min at 2000 rpm, incubated at room temperature between 1 to 4 hours and counted for 1 min with a PerkinElmer TopCount reader.

CB2 [6] = target: T2, CB2; experiment: CB1/CB2 Functional Assay (GTPγ[35S]), CB2 membranes; assay type: biochemical; conditions: for EC50: read-out: EC50 (nM) for GTP Binding; for % Activation Average: reference agonist CP55,940
Description: as §4, §5

Compound: CC1(Cc2ccccc2)COc2cc(C(=O)Nc3ccccc3I)ccc21 (stereo not shown) [Example 1, 3-Benzyl-3-methyl-2,3-dihydro-benzofuran-6-carboxylic acid (2-iodo-phenyl)-amide]
- % Inhibition of Control Specific Binding (CB1 [1]): 14%
- % of Control Specific Binding Mean (CB1 [1]): 85.5%
- % of Control Specific Binding 1st (CB1 [1]): 85.7%
- % of Control Specific Binding 2nd (CB1 [1]): 85.3%
- % Inhibition of Control Specific Binding (CB2 [2]): 23%
- % of Control Specific Binding Mean (CB2 [2]): 76.6%
- % of Control Specific Binding 1st (CB2 [2]): 78.3%
- % of Control Specific Binding 2nd (CB2 [2]): 74.8%

Compound: Cc1c(C(=O)NN2CCCCC2)nn(-c2ccc(Cl)cc2Cl)c1-c1ccc(I)cc1 [AM251, reference compound]
- effect of antagonist alone on paw withdrawal threshold [3]: had no effect

Compound: CC(=O)O[C@H]1C(=O)[C@@]2(C)[C@H]([C@H](OC(=O)c3ccccc3)[C@]3(O)C[C@H](OC(=O)[C@H](O)[C@@H](NC(=O)c4ccccc4)c4ccccc4)C(C)=C1C3(C)C)[C@]1(OC(C)=O)CO[C@@H]1C[C@@H]2O [paclitaxel, reference compound]
- paw withdrawal threshold to mechanical stimulation, left paw ([4]; rat, in vivo): 2.8 ± 0.15 g
- paw withdrawal threshold to mechanical stimulation, right paw ([4]; rat, in vivo): 2.9 ± 0.19 g

Compound: COc1ccc(C(=O)c2c(C)n(CCN3CCOCC3)c3cc(I)ccc23)cc1 [AM630, reference compound]
- effect of antagonist alone on paw withdrawal threshold [3]: had no effect

Compound: CC1(Cc2ccccc2)COc2ccc(C(=O)Nc3ccccc3I)cc21 (stereo not shown) [Example 4, 3-Benzyl-3-methyl-2,3-dihydro-benzofuran-5-carboxylic acid-o-iodoanilide]
- % Inhibition of Control Specific Binding (CB1 [1]): 9%
- % of Control Specific Binding Mean (CB1 [1]): 90.5%
- % of Control Specific Binding 1st (CB1 [1]): 85.9%
- % of Control Specific Binding 2nd (CB1 [1]): 95.1%
- % Inhibition of Control Specific Binding (CB2 [2]): 15%
- % of Control Specific Binding Mean (CB2 [2]): 84.7%
- % of Control Specific Binding 1st (CB2 [2]): 83.9%
- % of Control Specific Binding 2nd (CB2 [2]): 85.5%

Compound: CN1CCCCC1Cn1cc(C(=O)c2cc([N+](=O)[O-])ccc2I)c2ccccc21 (stereo not shown) [AM1241, reference compound]
- antiallodynic effect versus vehicle ([3]; 15 mg/kg i.p.): produced antiallodynic effects
- effect of naloxone pretreatment on analgesic effects ([3]; AM1241 15 mg/kg i.p.): significantly reversed
- effect on reversing thermal hyperalgesia compared with 15 mg/kg compound of Example 3 i.p. ([4]; 5 mg/kg i.p.): significantly less than

Compound: CC1(Cc2ccccc2)COc2ccc(C(=O)NC3CCCCC3)cc21 (stereo not shown) [Example 5, 3-benzyl-3-methyl-2,3-dihydrobenzofuran-5-carboxylic acid-cyclohexylamide]
- % Inhibition of Control Specific Binding (CB1 [1]): 43%
- % of Control Specific Binding Mean (CB1 [1]): 57.2%
- % of Control Specific Binding 1st (CB1 [1]): 53.5%
- % of Control Specific Binding 2nd (CB1 [1]): 60.8%
- % Inhibition of Control Specific Binding CB1 (CB1 [1]): 43%
- % Inhibition of Control Specific Binding (CB2 [2]): 72%
- % of Control Specific Binding Mean (CB2 [2]): 27.5%
- % of Control Specific Binding 1st (CB2 [2]): 29.9%
- % of Control Specific Binding 2nd (CB2 [2]): 25.1%
- % Inhibition of Control Specific Binding CB2 (CB2 [2]): 72%
- Compound Function (CB1 [5]): Inverse
- % Activation Average (CB1 [5]): −36.02%
- Compound Function (CB2 [6]): Agonist
- EC50 (CB2 [6]): 409 nM
- % Activation Average (CB2 [6]): 55.71%

Compound: CC1(Cc2ccccc2)COc2ccc(C(=O)N3CCCCC3)cc21 (stereo not shown) [Example 6, 3-benzyl-3-methyl-2,3-dihydrobenzofuran-5-carboxylic acid-piperidine amide]
- % Inhibition of Control Specific Binding (CB2 [2]): 31%
- % of Control Specific Binding Mean (CB2 [2]): 69.4%
- % of Control Specific Binding 1st (CB2 [2]): 71.6%
- % of Control Specific Binding 2nd (CB2 [2]): 67.3%

Compound: CC1(Cc2ccccc2)COc2cc(C(=O)NC3CCCCC3)ccc21 (stereo not shown) [Example 2, 3-Benzyl-3-methyl-2,3-dihydro-benzofuran-6-carboxylic acid cyclohexylamide]
- % Inhibition of Control Specific Binding (CB1 [1]): 68%
- % of Control Specific Binding Mean (CB1 [1]): 31.8%
- % of Control Specific Binding 1st (CB1 [1]): 29.9%
- % of Control Specific Binding 2nd (CB1 [1]): 33.8%
- % Inhibition of Control Specific Binding CB1 (CB1 [1]): 68%
- % Inhibition of Control Specific Binding (CB2 [2]): 85%
- % of Control Specific Binding Mean (CB2 [2]): 14.9%
- % of Control Specific Binding 1st (CB2 [2]): 21.3%
- % of Control Specific Binding 2nd (CB2 [2]): 8.6%
- % Inhibition of Control Specific Binding CB2 (CB2 [2]): 85%
- Compound Function (CB1 [5]): Inverse
- % Activation Average (CB1 [5]): −35.79%
- Compound Function (CB2 [6]): Agonist
- EC50 (CB2 [6]): 479 nM
- % Activation Average (CB2 [6]): 52.94%

Compound: C=CCN1CC[C@]23c4c5ccc(O)c4O[C@H]2C(=O)CC[C@@]3(O)[C@H]1C5 [naloxone, reference compound]
- effect per se on paw withdrawal threshold ([3]; 10 mg/kg i.p.): did not affect paw withdrawal threshold
